One test deals with T1, thromboxane synthetase (Homo sapiens, UniProt P24557).
T1 construct: crude microsomal preparation of thromboxane synthetase from lysed human platelets; from tissue; host or cells: lysed human platelets, crude microsomal preparation
T1 sequence (P24557 1-533): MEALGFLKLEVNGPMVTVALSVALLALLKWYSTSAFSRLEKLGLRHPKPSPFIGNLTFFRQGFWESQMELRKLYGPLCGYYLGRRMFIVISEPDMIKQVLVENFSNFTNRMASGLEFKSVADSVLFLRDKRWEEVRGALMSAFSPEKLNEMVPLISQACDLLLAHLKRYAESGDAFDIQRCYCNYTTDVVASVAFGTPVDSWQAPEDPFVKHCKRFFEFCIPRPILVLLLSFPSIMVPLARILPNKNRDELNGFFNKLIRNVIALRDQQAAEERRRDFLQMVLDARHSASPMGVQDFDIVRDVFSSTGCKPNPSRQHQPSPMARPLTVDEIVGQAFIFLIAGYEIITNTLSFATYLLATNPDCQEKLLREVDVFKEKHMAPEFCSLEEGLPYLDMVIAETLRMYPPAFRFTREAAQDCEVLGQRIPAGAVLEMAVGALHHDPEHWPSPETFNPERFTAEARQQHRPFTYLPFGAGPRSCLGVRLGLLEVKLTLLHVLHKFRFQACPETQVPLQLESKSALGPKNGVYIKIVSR
The test is described as follows: in vitro inhibition of the thromboxane synthetase enzyme. It is filed as biochemical. The settings on record: ratio TxB2/PGF2α+β reduced to 50% of control. Here is the method:
Res. Comm. 74, 1432 (1977); the testi g procedure is as follows:
^14 C-Archidonic acid is incubated with an enzyme consisting of solubilized and partially purified prostaglandin cyclo-oxygenase from sheep seminal vesicles and a crude microsomal preparation of thromboxane synthetase from lysed human platelets. The test compound (dissolved in buffer, or if necessary, in a small amount of ethanol) is added to the incubation medium. At the end of the incubation period (30 minutes), Prostaglandin E2 (PGE2) is reduced to a mixture of Prostaglandin F2 α and F2 β (PGF2α+β) by addition of sodium borohydride. The radioactive products and excess substrate are extracted into ethyl acetate; the extract is evaporated to dryness; the residue is dissolved in acetone, spotted on thin-layer plates and chromatographed in the solvent system toluene:acetone:glacial acetic acid (100 volumes:100 volumes:3 volumes). The radioactive zones are located; those corresponding to Thromboxane B2 (TxB2) and PGF2 α+β are transferred to liquid scintillatiopn vials and counted. The ratio of counts for TxB2 /PGF2 α+β is calculated for each concentration of test compound and IC50 values are determined graphically as the concentration of test compound at which the ratio of TxB2 /PGF2 α+β is reduced to 50% of the control value.

Test [1] relates to arachidonic acid induced pulmonary obstruction. Description: protection against sudden death due to arachidonic acid induced pulmonary obstruction. Format: in vivo. As to conditions: mice, oral, 100 mg/kg.
A further test has as its system thromboxane B2. Description: plasma levels of thromboxane B2 in vivo after ionophore A23187 in rats. The settings on record: rat, oral dose as low as 0.10 mg/kg. The method, then:
(§1) The inhibition of the synthesis and the reduction of plasma levels of thromboxane is determined in vivo on administration to rats in the following manner (as adapted from the procedures described by Tai et al. in Anal. Biochem. 87:343, 1978 and by Salmon in Prostaglglandins 15:383, 1978):
(§2) Rats are dosed with vehicle or test drug and injected intravenously with ionophore A23187 (0.5 mg/kg) two hours later. Blood is collected for analysis 2 minutes after the ionophore injection. A single aliquot of each plasma sample is assayed for thromboxane B2 and another aliquot for 6-keto-PGF1 α, the stable metabolites of thromboxane A2 and prostacyclin (PGI2) respectively, by radioimmunoassay.

The next test deals with platelet aggregation. The test is described as follows: inhibition of variously induced platelet aggregation.
For another test, the system named is prostacyclin (PGI2). The test is described as follows: plasma levels of prostacyclin in vivo after ionophore A23187 in rats. The settings on record: rat, oral dose 0.10 mg/kg or higher. The method, then:
as §1, §2

Test [2] can be described thus: prolongation of bleeding time in the rat. It is filed as in vivo. The settings on record: oral, dose of about 30 mg/kg. From the text:
Experimentally, prolongation of bleeding time in the rat is indicative of a beneficial antithrombotic effect.

The test system of a further test is thrombocytopenia. Description: inhibition of thrombocytopenia.
The target of test [3] is T2, prostaglandin cyclooxygenase (Ovis aries, UniProt P05979).
T2 construct: Lyophilized sheep seminal vesicle microsomes are utilized as the prostaglandin-synthesizing enzyme preparation; from tissue; host or cells: lyophilized sheep seminal vesicle microsomes
T2 sequence (P05979 25-600): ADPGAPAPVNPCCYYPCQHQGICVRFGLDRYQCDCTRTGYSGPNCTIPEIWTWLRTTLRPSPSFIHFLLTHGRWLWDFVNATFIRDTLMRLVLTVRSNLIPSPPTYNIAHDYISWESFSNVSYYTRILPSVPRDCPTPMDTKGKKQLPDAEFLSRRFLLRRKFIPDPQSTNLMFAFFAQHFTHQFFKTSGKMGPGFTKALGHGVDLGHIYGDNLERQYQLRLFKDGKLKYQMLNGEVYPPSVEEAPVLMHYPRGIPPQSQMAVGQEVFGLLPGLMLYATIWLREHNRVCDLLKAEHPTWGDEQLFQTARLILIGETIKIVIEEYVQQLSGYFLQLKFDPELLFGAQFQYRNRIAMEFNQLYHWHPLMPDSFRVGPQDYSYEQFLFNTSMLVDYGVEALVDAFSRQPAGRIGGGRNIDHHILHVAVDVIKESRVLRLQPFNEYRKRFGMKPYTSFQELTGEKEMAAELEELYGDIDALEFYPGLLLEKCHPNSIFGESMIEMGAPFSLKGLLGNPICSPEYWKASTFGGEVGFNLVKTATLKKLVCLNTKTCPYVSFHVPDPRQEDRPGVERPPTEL
The test is described as follows: in-vitro effect on prostaglandin cyclooxygenase. Format: biochemical, sheep. The settings on record: 50% reduction in PGE2 synthesized, read-out: IC50 for inhibition of cyclooxygenase. Here is the method:
The in-vitro effect on prostaglandin cyclooxygenase is measured by a modification of the method of Takeguchi et al. described in Biochemistry 10, 2372 (1971); the testing procedure is as follows: Lyophilized sheep seminal vesicle microsomes are utilized as the prostaglandin-synthesizing enzyme preparation. The conversion of ^14 C-arachidonic acid to PGE2 is measured. Test compounds (dissolved in buffer, or if necessary, in small amount of ethanol) are added to the incubation mixture. The prostaglandins are extracted and separated by thin-layer chromatography; the plates are scanned, the radioactive zones corresponding to PGE2 are transferred to liquid scintillation vials and counted for radioactivity. IC50 values for inhibition are determined graphically as the concentration of test compound causing a 50% reduction in the amount of PGE2 synthesized.

For test [4], the target named is T3, prostacyclin (PGI2) synthetase (Bos taurus, UniProt Q29626).
T3 construct: crude PGI2 synthetase in the form of a microsomal fraction of bovine aorta; from tissue; host or cells: bovine aorta, microsomal fraction
T3 sequence (Q29626 1-500): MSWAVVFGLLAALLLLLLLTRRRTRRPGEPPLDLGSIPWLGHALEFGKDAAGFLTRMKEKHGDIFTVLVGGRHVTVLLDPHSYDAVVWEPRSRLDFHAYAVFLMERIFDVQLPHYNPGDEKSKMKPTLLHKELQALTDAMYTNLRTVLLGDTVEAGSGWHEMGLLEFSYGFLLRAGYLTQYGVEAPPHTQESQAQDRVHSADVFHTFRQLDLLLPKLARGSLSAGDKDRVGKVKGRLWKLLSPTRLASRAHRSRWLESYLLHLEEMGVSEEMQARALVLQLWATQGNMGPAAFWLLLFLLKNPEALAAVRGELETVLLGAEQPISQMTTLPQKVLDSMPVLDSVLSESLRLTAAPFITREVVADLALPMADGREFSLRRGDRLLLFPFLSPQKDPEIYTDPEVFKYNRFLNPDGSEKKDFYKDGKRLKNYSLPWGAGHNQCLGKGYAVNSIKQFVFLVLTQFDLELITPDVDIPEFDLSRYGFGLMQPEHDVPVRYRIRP
Description: in-vitro effect on prostacyclin (PGI2) synthetase. It is filed as biochemical, bovine. The settings on record: ratio 6-keto-PGF1α/PGE2 reduced to 50% of control, read-out: IC50 for inhibition of prostacyclin synthetase. Here is the method:
The in-vitro effect on prostacyclin (PGI2) synthetase is measured analogous to the method of Sun et al., Prostaglandins 14, 1055 (1977);
The testing procedure is as follows:
^14 C-Arachidonic acid is incubated with an enzyme mixture consisting of solubilized and partially purified prostaglandin cyclo-oxygenase from sheep seminal vesicles and crude PGI2 synthetase in the form of a microsomal fraction of bovine aorta.
Test compound (dissolved in buffer, or if necessary, in a small amount of ethanol) is placed in the incubation medium. The reaction mixture is incubated in 100 mM Tris HCl (pH 7.5) for 30 minutes at 37° C., acidified to pH 3 and extracted into ethyl acetate. The extract is evaporated to dryness; the residue is dissolved in acetone, spotted on thin-layer plates and chromatographed in a solvent system described in Sun et al. The radioactive zones are located with a scanner; those corresponding to 6-keto-PGF1 α (a stable end product of prostacyclin biotransformation) and PGE2 are transferred to liquid scintillation vials and counted. The ratio of counts for 6-keto-PGF1 α/PGE2 is calculated for each concentration of test compound used. IC50 values for inhibition are determined graphically as the concentration of test compound at which the ratio of 6-keto-PGF1 α/PGE2 is reduced to 50% of the control value.

What is called IC50 is the concentration that gives 50% inhibition. In the case of `Cc1c(-c2cccnc2)n(Cc2ccc(C(=O)O)cc2)c2ccccc12` [Example 11, 1-(4-carboxybenzyl)-3-methyl-2-(3-pyridyl)indole], on thromboxane synthetase, the IC50 was 50 nM.

In the case of `Cc1c(-c2cccnc2)n(CCCCCC(=O)O)c2ccc(CCC(=O)O)cc12` [Example 9, 1-(5-carboxypentyl)-5-(2-carboxyethyl)-3-methyl-2-(3-pyridyl)indole], at thromboxane synthetase, the IC50 was 20 nM.

Regarding `Cc1c(-c2cccnc2)n(CCCCCC(=O)O)c2ccc(Cl)cc12` [Example 7, 1-(5-carboxypentyl)-5-chloro-3-methyl-2-(3-pyridyl)indole], the IC50 on thromboxane synthetase was 1 nM.

As to `Cc1c(-c2cccnc2)n(CCCCCC(N)=O)c2ccc(Cl)cc12` [Example 13, 1-(5-carbamoylpentyl)-5-chloro-3-methyl-2-(3-pyridyl)indole], the 50% inhibitory concentration (IC50) at thromboxane synthetase amounted to 10 nM.

As for `Cc1c(-c2cccnc2)n(CCCCCCCC(=O)O)c2ccccc12` [Example 1, 1-(7-carboxyheptyl)-3-methyl-2-(3-pyridyl)indole], the “protection against sudden death” value in [1] is listed as “protects against sudden death”. Also, the “decrease of the plasma concentration of thromboxane B2” value in the test with thromboxane B2 is recorded as “over 50%”. In the test on platelet aggregation, the “inhibition of variously induced platelet aggregation” value is listed as “inhibits”. Moreover, the “plasma level of prostacyclin” value in the test with prostacyclin (PGI2) is on record as “a surprising increase”. For the same compound, the bleeding time entry in test [2] is “prolongs bleeding time”. In addition, the inhibition of thrombocytopenia result in the test with thrombocytopenia was “inhibits”. The IC50 in test [3] and in test [4] was roughly 100000 nM throughout.

(Values after patent US4460777A, “N-Substituted-2-pyridylindoles” (Ciba-Geigy Corporation, priority 1982, dated 1984).)
